From US9856225B2, “Substituted phenazines as antimicrobial agents” (University of Florida Research Foundation, Incorporated, priority 2013, dated 2018)
Like-named read-outs stand apart in the source and are kept apart here.

Assays:
Type in all cases: cell-based
[1] = system: Staphylococcus aureus (ATCC 25923); experiment: MIC broth microdilution (CLSI), Luria Broth; conditions: for fold more potent than compound 1: from MIC
Summary of the method: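 Two-fold serial dilutions (0.10–100 μM, eleven points) in Luria Broth, each well inoculated with 10^5 cells from log-phase culture (OD600 0.5), per CLSI broth microdilution. DMSO vehicle up to 1% v/v as negative control; kanamycin positive control for the staphylococci.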

[2] = system: Acinetobacter baumannii (ATCC 19606); experiment: Planktonic growth (OD600) in biofilm inhibition assay; conditions: for inhibition of growth at 100 µM: Acinetobacter baumannii, ATCC19606, 24 h, A. baumannii ATCC 19606, * = no growth inhibition at 200 μM, read-out: % Growth Inhibition at 100 μM
Method: Each well was inoculated with ˜7×10^6 colony forming units per milliliter (corresponding to an OD600 of 0.01 prepared directly from an overnight culture). A lid was placed on the 96-well plate which was wrapped in suran wrap, placed in a humidifying chamber and incubated under static conditions at 37° C. for 24 hours. Following incubation, the media and planktonic bacteria were then removed from 96-well plates and the wells were then washed with water. The bacterial biofilms within the microtiter wells were stained with 200 μL of an aqueous 0.1% crystal violet solution that was allowed to stand for 10-20 minutes. The crystal violet stain was then removed, the wells were rinsed with water and dried. The crystal violet stain that remained on the inside of the wells (i.e., stained bacterial biofilm) on the inside of the wells was solubilized by the addition of 200 μL ethanol and absorbance was read at OD540 using a spectrophotometer. […] Single data points for all compounds and DMSO controls were tested in two replicate rows in 96-well plates and corresponding absorbance readings were averaged for the quantification of planktonic growth and biofilm formation. Reported percent biofilm inhibition was determined by the comparison of compound treated wells (the average of the two replicate wells) versus vehicle control wells without compound following background subtraction (i.e., an empty, untreated well) and reported from 2 to 4 independent overnight cultures. DMSO was serially diluted at the same concentration as test compounds with a top concentration of 1% v/v.
The bromophenazines were also evaluated against the Gram-negative bacterium Acinetobacter baumannii in order to identify biofilm modulating small molecules against this emerging pathogen. Acinetobacter baumannii is notorious for its ability to persist as bacterial biofilms on hospital surfaces, giving rise to many multidrug-resistant nosocomial infections. Clinical isolates of A. baumannii have been identified that are resistant to every class of antibiotic clinically used. The bromophenazines were evaluated against Acinetobacter baumannii ATCC 19606 in biofilm inhibition assays. Bromophenazines were allowed to incubate in 96-well plates with Acinetobacter baumannii (˜7×10^6 CFUmL^−1 by adjusting an overnight culture to an OD600˜0.01) for 24 hours at 37° C. using Mueller-Hinton broth followed by spectrophometer readings of each plate to evaluate planktonic growth (OD600) and biofilm formation (OD540 after crystal violet stain of biofilms inside microtiter wells). […] This biofilm inhibition with activation of planktonic growth activity was dose-dependent with bromophenazine 17a (see FIG. 20).

[3] = system: Staphylococcus aureus (ATCC 25923) established biofilm; experiment: Biofilm dispersion, crystal violet staining; conditions: for EC50: Staphylococcus aureus, read-out: Biofilm Dispersion EC50
Method: Biofilm Dispersion Protocol for Staphylococcus aureus (ATCC 25923): A single colony grown on tryptic soy agar (TSA) solid medium is amplified in 2 milliliters of tryptic soy broth (TSB) medium with 0.5% glucose to an OD600=0.8-1.0. The bacterial suspension was then diluted to 1×10^6 CFU/mL in TSB with 0.5% glucose. Sterile 96-well flat-bottomed polystyrene plates (0.1% gelatin coated overnight) were then filled with 200 μL of this bacterial suspension. The plates were then covered and incubated for 24 hours at 37° C. Following this, the contents of the wells were discarded and washed with 200 μL PBS (one time). Then serial, two-fold dilutions of bromophenazine small molecules in 200 μL PBS were delivered into each well. The plates were then covered and incubated for another 24 hours at room temperature. After this incubation time, the plates were gently washed with water three times (wells were rinsed by submerging the entire plates in a tub of cold, running tap water). Remaining biofilms were then fixed with 200 μL of methanol for 15 minutes. The plates were emptied and left to air dry. Upon drying, 100 μL of 1% crystal violet was added to each well for 10 minutes, then washed three times with water and again air dried. For quantitative assessment of biofilm formation 100 μL per well of bleaching solution (methanol:glacial acetic acid:water (v/v/v)=4:1:5 with rotary shaking for 1 hour) was used. Remaining biofilm was measured using a spectrophotometer (absorbance readings at 540 nm).
Further microdilution MIC assays were carried out for 11, 21-26, and 4a-29a against Staphylococcus aureus (ATCC 25923) in Luria Broth media (at ˜10^5 CFUmL^−1) to establish the level of growth inhibition for each compound (see FIGS. 5-13). […] Differentiation of a “biofilm inhibitor” from an antibacterial agent was carried out according to the ratio of MIC/IC50 of biofilm inhibition (based on crystal violet staining dose-response). […] Following the biofilm inhibition screen, bromophenazines 12a, 14a, 18a and 20a were evaluated in three independent biofilm inhibition experiments against Staphylococcus aureus to obtain replicate data. […] In addition to inhibiting biofilm formation, small molecules that are able to disperse or clear preexisting bacterial biofilms would be highly valuable. Six of the bromophenazine analogues (11, 4a, 8a, 23a, 27a, 28a; see Table 2 and FIGS. 18-19) were evaluated in biofilm dispersion assays by allowing Staphylococcus aureus biofilms to establish in 96-well plates for 24 hours at 37° C. After this incubation time, the media and planktonic cells were removed followed by a wash of the 96-well plates with water. Phosphate buffered saline (PBS) was then added to the 96-well plate followed by the addition of bromophenazine compounds (with 2-fold serial dilutions of each compound tested). The resulting plates were then allowed to incubate at room temperature for 24 hours and stained with crystal violet to quantify biofilm dispersion.

[4] = Staphylococcus aureus, ATCC25923, Table 2, S. aureus ATCC 25923, Luria Broth, read-out: MIC
[5] = Table 2, S. aureus ATCC 25923, Luria Broth, read-out: MIC
[6] = ATCC25923, S. aureus ATCC 25923, 24 h in PBS at room temperature
[7] = Staphylococcus aureus, ATCC25923, Table 1, ATCC 25923, range tested 0.10 to 100 μM, read-out: Staphylococcus aureus MIC
[8] = Staphylococcus aureus, ATCC25923, Table 1, ATCC 25923, read-out: Staphylococcus aureus MIC

| SMILES | MIC [1, 4] [µM] | MIC [1, 5] [µM] | EC50 [3, 6] [µM] | inhibition of growth at 100 µM ([2]; 100 μM) [%] | Biofilm Dispersal Agent? ([3]; S. aureus ATCC 25923) | MIC [1, 7] [µM] | MIC [1, 8] [µg/mL] | fold more potent than compound 1 ([1]; Staphylococcus aureus) [fold] | EC50 ([3]; ATCC25923, 24 h) [µM] | increase in planktonic growth ([2]; 100 μM, OD600) [%] | planktonic growth inhibition at 200 μM ([2]; 200 μM) |
| --- | --- | --- | --- | --- | --- | --- | --- | --- | --- | --- | --- |
| O=C(CCCC(=O)Oc1c(Br)cc(Br)c2nc3ccccc3nc12)Oc1c(Br)cc(Br)c2nc3ccccc3nc12 [Compound 5a] | > 100 |  |  | -1 ± 6 |  |  |  |  |  |  |  |
| O=C(OCCc1ccccc1)Oc1c(Br)cc(Br)c2nc3ccccc3nc12 [Compound 8a] | 0.78 to 1.56 | 1.56 | > 100 | 76 ± 10 | No |  |  |  |  |  |  |
| Oc1c(Br)cc(Br)c2nc3ccccc3nc12 [Compound 11, 2,4-Dibromophenazin-1-ol] | 1.56 |  |  | 86 ± 3 | Yes | 1.56 | 0.55 | 32 | 29.3 |  |  |
| O=C(Oc1c(Br)cc(Br)c2nc3ccccc3nc12)c1ccc(Br)cc1 [Compound 12a] | > 100 |  |  | 3 ± 3 |  |  |  |  |  |  |  |
| O=C(Oc1c(Br)cc(Br)c2nc3ccccc3nc12)c1cccc([N+](=O)[O-])c1 [Compound 15a] | 0.78 to 1.56 | 1.56 |  | 3 ± 4 |  |  |  |  |  |  |  |
| CC(=O)Oc1c(Br)cc(Br)c2nc3ccccc3nc12 [Compound 21, 2,4-Dibromophenazin-1-yl acetate] | 0.78 to 1.56 |  |  | 83 ± 2 |  | 0.78 to 1.56 | 0.31 to 0.62 | 32 |  |  |  |
| O=C(Oc1c(Br)cc(Br)c2nc3ccccc3nc12)c1ccccc1 [Compound 23, 2,4-Dibromophenazin-1-yl benzoate] | 1.56 |  |  | -13 ± 7 |  | 1.56 | 0.72 |  |  | ~15 | did not inhibit planktonic growth |

Continued, in another order:

| MIC [1, 4] [µM] | MIC [1, 5] [µM] | EC50 [3, 6] [µM] | SMILES | inhibition of growth at 100 µM ([2]; 100 μM) [%] | Biofilm Dispersal Agent? ([3]; S. aureus ATCC 25923) | MIC [1, 7] [µM] | MIC [1, 8] [µg/mL] | fold more potent than compound 1 ([1]; Staphylococcus aureus) [fold] | EC50 ([3]; ATCC25923, 24 h) [µM] | increase in planktonic growth ([2]; 100 μM, OD600) [%] | planktonic growth inhibition at 200 μM ([2]; 200 μM) |
| --- | --- | --- | --- | --- | --- | --- | --- | --- | --- | --- | --- |
| 0.78 to 1.56 | 1.56 | 2.6 | CCC(=O)Oc1c(Br)cc(Br)c2nc3ccccc3nc12 [Compound 4a] | 82 ± 1 | Yes |  |  |  |  |  |  |
| > 100 |  |  | O=C(Oc1c(Br)cc(Br)c2nc3ccccc3nc12)c1ccc(Cl)cc1 [Compound 14a] | 2 ± 3 |  |  |  |  |  |  |  |
| > 100 |  |  | Cc1ccc(C(=O)Oc2c(Br)cc(Br)c3nc4ccccc4nc23)cc1 [Compound 18a] | -6 ± 6 |  |  |  |  |  |  |  |
| 0.78 to 1.56 | 0.78 | 1.4 | O=C(Oc1c(Br)cc(Br)c2nc3ccccc3nc12)c1ccco1 [Compound 23a] | 80 ± 1 | Yes |  |  |  |  |  |  |
| 0.78 to 1.56 | 0.78 | > 100 | O=C(OCC(Cl)(Cl)Cl)Oc1c(Br)cc(Br)c2nc3ccccc3nc12 [Compound 27a] | 68 ± 4 | No |  |  |  |  |  |  |
| 0.78 to 1.56 | 1.56 | 2.9 | COC(=O)Oc1c(Br)cc(Br)c2nc3ccccc3nc12 [Compound 28a] | 92 ± 1 | Yes |  |  |  |  |  |  |
